# Legend:
# Assay type in all cases: cell-based
# KG1 = test: AraC EC50 in parental and AraC resistant cells; conditions: Homo sapiens
# HL60 = test: AraC EC50 in parental and AraC resistant cells; conditions: Homo sapiens
# SKM1 = test: AraC EC50 in parental and AraC resistant cells; conditions: Homo sapiens
# HEK-293T = test: Pancancer cell line panel viability (nontumor line); conditions: HEK-293T (nontumor); 10 µM; 48 h
# Experimental: (§1) First, 2 × 10^5 (72 h assays in cell lines (Supplementary File S1)), 3 × 10^5 (48 h assays in cell lines) or 7.5 × 10^5 (primary AML, healthy donor buffy coats) cells per mL were cultured in 96-well plates, and all drugs were added at the indicated concentrations. In α-tocopherol experiments, cells were treated with growing concentrations of α-tocopherol and EDK drugs for 48 h. In the NAC and 3MA experiments, treatment was simultaneous with EDK compounds. In glucose deprivation experiments, cells were cultivated with a standard medium (glucose high, 2 g/L), a standard medium without glucose, or a standard medium with galactose (2 g/L) and without glucose. Cell viability was measured via 7-AAD (eBioscience) exclusion and Hoechst33342 (Sigma-Aldrich, St. Louis, MO, USA) positivity staining via flow cytometry, and the cell count was obtained through volume. In the experiments with the primary cells, analyses were performed inside the blast population as detected via blast gates (CD45^low SSC^int). For solid tumor cell lines, viability was analyzed using CellTiter-Glo® Luminescent Cell Viability Assay (Promega).
# (§2) AML cell lines and cell cultures
# (§3) Cell lines HL-60 (ACC-3), KG-1 (ACC-14), MonoMac-1 (ACC-252), Kasumi-1 […]
# (§4) obtained from DSMZ. Cell lines THP-1 (TIB-202TM), MCF-7 (HTB-22™), MDA- […]
# (§5) 3216™) and HS-5 (CRL-11882™) were obtained from ATCC. HBL-2 cell line was kindly supplied by Dr. Pérez-Galán (IDIBAPS, Barcelona, Spain). SKM-1 and U937 were kindly provided by Dr. Marcus Buschbeck (IJC, Badalona, Spain). All cell lines were cultured in the conditions indicated by the providers, and were tested for mycoplasma on a monthly basis.
# (§6) All drugs were resuspended in H2O (Thermo Fischer Scientific), DMSO (Sigma-Aldrich) or ethanol (VWR) according to manufacturer’s specifications. - tocopherol, 3-methyladenine (3MA), arsenic trioxide (ATO) and N-acetyl-L-cysteine (NAC) were purchased from Sigma Aldrich. Chloroquine diphosphate was purchased from Merck. Etoposide and ionomycin were purchased from […]
# (§7) (1 picture or pasted object on this page, not shown here)
# HS-5 = test: as above; conditions: HS-5 (nontumor); 10 µM; 48 h
# Experimental: as §1, §2, §3, §4, §5, §6, §7
# [1] = system: intracellular calcium in HL60 cells; test: Calcium mobilization assay (Fura2 probe); conditions: 10 µM EDK-87/EDK-88, 50 µM chloroquine
# Experimental: 1,000 cells of AML cell lines or 50,000 primary cells (both AML and lin-depleted UCB) were treated at the indicated concentration for 18 h, and cultured in 1 mL of MethoCult H4034 Optimum (StemCell Technologies, Vancouver, BC, Canada).
# Colonies were screened based on morphology and cellularity at day 7 (cell lines) […]
# Calcium mobilization assay
# 1 x 10^6 cells per mL were loaded for 30’ at 37 °C with the Fura-2-AM probe (Thermo Fisher) at a final 2 µM concentration in pre-warmed calcium- and magnesium-free Hanks BSA solution. Cells were then washed and resuspended in Hanks BSA solution with calcium and magnesium at 3 x 10^5 cells per mL. In parallel, 50µL of drugs in Hanks BSA solution with calcium and magnesium were added to 96-well black wall clear bottom plates and background fluorescence […]
# Cells were then added to the plate
# (50µL/well) and fluorescence was acquired at indicated timepoints using a Synergy HT Multi-Detection Microplate Reader (BioTek). For the analysis, all values were subtracted their corresponding background fluorescence, and the ratio 340/380 was calculated. Finally, ratios were normalized to vehicle-treated […]
# Semi-Quantitative Real Time PCR
# A549 = test: Pancancer cell line panel viability; conditions: 10 µM, 48 h
# Experimental: as §1, §2, §3, §4, §5, §6, §7
# MOLT4 = test: Pancancer cell line panel viability; conditions: 10 µM, 48 h
# Experimental: as §1, §2, §3, §4, §5, §6, §7
# U266 = test: Pancancer cell line panel viability; conditions: 10 µM, 48 h
# Experimental: as §1, §2, §3, §4, §5, §6, §7
# MDA-MB-435 = test: Pancancer cell line panel viability; conditions: 10 µM, 48 h
# Experimental: as §1, §2, §3, §4, §5, §6, §7
# DU-145 = test: Pancancer cell line panel viability; conditions: 10 µM, 48 h
# Experimental: as §1, §2, §3, §4, §5, §6, §7
# GRANTA = test: Pancancer cell line panel viability; conditions: 10 µM, 48 h
# Experimental: as §1, §2, §3, §4, §5, §6, §7
# ACHN = test: Pancancer cell line panel viability; conditions: 10 µM, 48 h
# Experimental: as §1, §2, §3, §4, §5, §6, §7
# HCT-15 = test: Pancancer cell line panel viability; conditions: 10 µM, 48 h
# Experimental: as §1, §2, §3, §4, §5, §6, §7
# CAKI = test: Pancancer cell line panel viability; conditions: 10 µM, 48 h
# Experimental: as §1, §2, §3, §4, §5, §6, §7
# SR = test: Pancancer cell line panel viability; conditions: 10 µM, 48 h
# Experimental: as §1, §2, §3, §4, §5, §6, §7
# Jurkat = test: Pancancer cell line panel viability; conditions: 10 µM, 48 h
# Experimental: as §1, §2, §3, §4, §5, §6, §7
# MDA-MB-231 = test: Pancancer cell line panel viability; conditions: 10 µM, 48 h
# Experimental: as §1, §2, §3, §4, §5, §6, §7
# PC-3 = test: Pancancer cell line panel viability; conditions: 10 µM, 48 h
# Experimental: as §1, §2, §3, §4, §5, §6, §7
# HCT-116 = test: Pancancer cell line panel viability; conditions: 10 µM, 48 h
# Experimental: as §1, §2, §3, §4, §5, §6, §7
# MCF-7 = test: Pancancer cell line panel viability; conditions: 10 µM, 48 h
# Experimental: as §1, §2, §3, §4, §5, §6, §7
# JJN3 = test: Pancancer cell line panel viability; conditions: 10 µM, 48 h
# Experimental: as §1, §2, §3, §4, §5, §6, §7
# HBL2 = test: Pancancer cell line panel viability; conditions: 10 µM, 48 h
# Experimental: as §1, §2, §3, §4, §5, §6, §7
# OVCAR = test: Pancancer cell line panel viability; conditions: 10 µM, 48 h
# Experimental: as §1, §2, §3, §4, §5, §6, §7
# HOP62 = test: Pancancer cell line panel viability; conditions: 10 µM, 48 h
# Experimental: as §1, §2, §3, §4, §5, §6, §7
# RAMOS = test: Pancancer cell line panel viability; conditions: 10 µM, 48 h
# Experimental: as §1, §2, §3, §4, §5, §6, §7
# NCI = test: Pancancer cell line panel viability; conditions: 10 µM, 48 h
# Experimental: as §1, §2, §3, §4, §5, §6, §7
# M14 = test: Pancancer cell line panel viability; conditions: 10 µM, 48 h
# Experimental: as §1, §2, §3, §4, §5, §6, §7
# K562 = test: Pancancer cell line panel viability; conditions: 10 µM, 48 h
# Experimental: as §1, §2, §3, §4, §5, §6, §7
structure (smiles),measurement,setting,value
"Nc1ccn([C@@H]2O[C@H](CO)[C@@H](O)[C@@H]2O)c(=O)n1 [AraC, cytarabine]",EC50,"KG1; KG-1, KG1 AraCR (AraC resistant)",400 nM
same,EC50,"KG1; KG-1, KG1 WT",50 nM
same,EC50,"HL60; HL-60, HL60 AraCR (AraC resistant)",220 nM
same,EC50,"HL60; HL-60, HL60 WT",29.8 nM
same,EC50,"SKM1; SKM-1, SKM1 AraCR (AraC resistant)",4860 nM
same,EC50,"SKM1; SKM-1, SKM1 WT",116 nM
"CCN(CC)CCCC(C)Nc1ccnc2cc(Cl)ccc12 (centres unmarked) [CHL, chloroquine, reference compound]",# Live cells refer to control,HEK-293T,67%
same,# Live cells refer to control,HS-5,74%
same,intracellular calcium mobilization,[1],failed to mobilize intracellular calcium
same,# Live cells refer to control,A549,59%
same,# Live cells refer to control,MOLT4,57%
same,# Live cells refer to control,U266,67%
same,# Live cells refer to control,MDA-MB-435,44%
same,# Live cells refer to control,DU-145,54%
same,# Live cells refer to control,GRANTA,51%
same,# Live cells refer to control,ACHN,93%
same,# Live cells refer to control,HCT-15,77%
same,# Live cells refer to control,CAKI,55%
same,# Live cells refer to control,SR,23%
same,# Live cells refer to control,Jurkat,94%
same,# Live cells refer to control,MDA-MB-231,50%
same,# Live cells refer to control,PC-3,63%
same,# Live cells refer to control,HCT-116,80%
same,# Live cells refer to control,MCF-7,54%
same,# Live cells refer to control,JJN3,84%
same,# Live cells refer to control,HBL2,62%
same,# Live cells refer to control,OVCAR,74%
same,# Live cells refer to control,HOP62,55%
same,# Live cells refer to control,RAMOS,115%
same,# Live cells refer to control,NCI,69%
same,# Live cells refer to control,M14,42%
same,# Live cells refer to control,K562,105%

# From paper PMC10047683, “A Novel Family of Lysosomotropic Tetracyclic Compounds for Treating Leukemia” (Cancers, 2023)
